Reference: patent US12089595B2, “Pseudomonas strains and their metabolites to control plant diseases” (T3 Bioscience, Inc., priority 2020, dated 2024)
Entries after “also recorded” stand apart in the source; their conditions may differ. Where two headings read alike, the source gives them in different places.

What was measured:
[1] = tested on: E. amylovora; experiment: Plate diffusion assay in LB plates; assay type: cell-based, Erwinia amylovora
Description: Two assays were used for the antimicrobial test of 0617-T307 cell broth and metabolites. One is plate diffusion assay and the other one is microplate assay. LB plate was used for the plate diffusion assay of the antimicrobial activity of RejuAgro A containing fractions and cell broths against E. amylovora (Table 3).

[2] = tested on: Erwinia amylovora 273; experiment: In vitro plate assay of flash fractions; assay type: cell-based; conditions: E. amylovora 273 on 50% LB plate, 2 μL DMSO solution, one day
Procedure: The generated fractions were applied for the subsequent plate assays. One mL of each fraction was picked up into a 1.5 mL test tube and vacuum dried by an Eppendorf vacuum concentrator. The dried sample was dissolved in 50 μL DMSO, of which 2 μL was used in the plate assay. Briefly, Erwinia amylovora 273 was streaked onto LB plate to grow at 28° C. incubator and single colony obtained after 24 h was inoculated into 5 mL LB media to allow an overnight growth at 28° C. shaker at 200 rpm. The bacteria were diluted 1:100 in sterile water, of which 225 μL was plated onto 50% LB plate (Tryptone, 5.0 g/L; Yeast extract, 2.5 g/L; NaCl, 5.0 g/L, Agar, 15 g/L). After dried in the biosafety cabinet for 10 mins, the DMSO solution of each fraction was then distributed to its pre-labeled section of the petri dish and allowed to dry for another 10 min. Along with the assay, DMSO and Kasugamycin were used as negative and positive controls, respectively. The plates were then incubated at 28° C. incubator and the inhibitory zone was checked one day later.
The generated fractions were applied for the subsequent plate assays. One mL of each fractions was picked up into a 1.5 mL test tube and vacuum dried by an Eppendorf vacuum concentrator. The dried sample was dissolved in 50 μL DMSO, of which 2 μL was used in the plate assay. […]

[3] = Solubility in solvents; assay type: physicochemical
Procedure: Preparative HPLC (Prep-HPLC) purification of the fraction 3840 and 5054 lead to the discovery of 15 mg yellow colored compound RejuAgro A (Rt17.5) and 103.3 mg dark-green colored compound RejuAgro B, respectively. […] The structures of the two compounds have been investigated by High resolution mass spectrometry (HR-MS), infrared (IR), Ultraviolet (UV), 1D and 2D Nuclear magnetic resonance (NMR) as well as X-ray crystal structure analysis.

[4] = tested on: R. solanacearum K60; experiment: microbe, parasite or virus in culture; assay type: cell-based; conditions: Ralstonia solanacearum, K60, read-out: Diameter of the zone of inhibition
[5] = tested on: X. arboricola pv. Juglandis Xaj219; experiment: microbe, parasite or virus in culture; assay type: cell-based, Xanthomonas arboricola pv. Juglandis; conditions: Xanthomonas arboricola, read-out: Diameter of the zone of inhibition
[6] = tested on: X. arboricola pv. Juglandis Xaj417; experiment: microbe, parasite or virus in culture; assay type: cell-based, Xanthomonas arboricola pv. Juglandis; conditions: Xanthomonas arboricola, read-out: Diameter of the zone of inhibition
[7] = tested on: R. solanacearum Pss; experiment: microbe, parasite or virus in culture; assay type: cell-based; conditions: Ralstonia solanacearum, read-out: Diameter of the zone of inhibition
[8] = tested on: Xanthomonas axonopodis pv. citri N40-SO5; experiment: Agar plate spot assay (inhibitory zone); assay type: cell-based; conditions: Xac N40-SO5, NA
[9] = tested on: Ralstonia solanacearum K60; assay type: cell-based; conditions: LB
[10] = tested on: Pectobacterium parmentieri UPP163 936; experiment: Agar plate spot assay (inhibitory zone); assay type: cell-based; conditions: LB
Description: (§1) The HPLC isolation and purification of the ethyl acetate extracts of acidified cell broth of Pseudomonas sp. 0617-T307 identified two antimicrobial compounds (Rt22.9 and Rt25.0) from flash fraction T5058 and one antimicrobial compound (Rt18.9) from flash fraction T7882. Two μL of DMSO, Rt18.9, Rt22.9 or Rt25.0 were spotted on agar plates respectively grown with different bacterial strains and the inhibitory zone was further examined (Table 8).

[11] = tested on: Pseudomonas savastanoi pv. savastanoi 01-26; experiment: Agar plate spot assay (inhibitory zone); assay type: cell-based; conditions: P. savastanoi pv. savastanoi 01-26, LB
Description: as §1

[12] = tested on: Pseudomonas syringae pv. tomato PT30; experiment: Agar plate spot assay (inhibitory zone); assay type: cell-based; conditions: P. syringae pv. tomato PT30, LB
Description: as §1

[13] = tested on: Pseudomonas syringae pv syringae 7046; experiment: Agar plate spot assay (inhibitory zone); assay type: cell-based; conditions: P. syringae pv syringae 7046, LB
Description: as §1

[14] = tested on: Pectobacterium atrosepticum 942; experiment: Agar plate spot assay (inhibitory zone); assay type: cell-based; conditions: LB
Description: as §1

[15] = tested on: Pseudomonas syringae pv. lachrymans 1188-1; experiment: Agar plate spot assay (inhibitory zone); assay type: cell-based; conditions: P. syringae pv. lachrymans 1188-1, LB
Description: as §1

[16] = tested on: Erwinia amylovora 1189; experiment: Agar plate spot assay (inhibitory zone); assay type: cell-based; conditions: LB
Description: as §1

[17] = tested on: Pectobacterium carotovorum subsp. brasiliensis 944; experiment: Agar plate spot assay (inhibitory zone); assay type: cell-based; conditions: P. carotovorum subsp. brasiliensis 944, LB
Description: as §1

[18] = tested on: Xanthomonas arboricola pv. Juglandis 219; experiment: Agar plate spot assay (inhibitory zone); assay type: cell-based; conditions: X. arboricola pv. Juglandis 219, NA
Description: as §1

[19] = tested on: Xanthomonas arboricola pv. Juglandis 417; experiment: Agar plate spot assay (inhibitory zone); assay type: cell-based; conditions: X. arboricola pv. Juglandis 417, NA
Description: as §1

[20] = tested on: Xanthomonas axonopodis pv. citri-Miami XC2002-00010; experiment: Agar plate spot assay (inhibitory zone); assay type: cell-based; conditions: Xac-Miami XC2002-00010, NA
[21] = tested on: Clavibacter michiganensis subsp. michiganensis Cmm 0317; experiment: Agar plate spot assay (inhibitory zone); assay type: cell-based; conditions: LB, 2 to 5 days
[22] = tested on: C. michiganensis subsp. Michiganensis Cmm382; experiment: Agar plate diffusion assay; assay type: cell-based, Clavibacter michiganensis subsp. michiganensis; conditions: Clavibacter michiganensis, read-out: Diameter of the zone of inhibition
[23] = tested on: C. michiganensis subsp. Michiganensis Cmm0690; experiment: Agar plate diffusion assay; assay type: cell-based, Clavibacter michiganensis subsp. michiganensis; conditions: Clavibacter michiganensis, read-out: Diameter of the zone of inhibition
[24] = tested on: C. michiganensis subsp. Michiganensis Cmm0317; experiment: Agar plate diffusion assay; assay type: cell-based, Clavibacter michiganensis subsp. michiganensis; conditions: Clavibacter michiganensis, read-out: Diameter of the zone of inhibition
[25] = tested on: Venturia inaequalis; experiment: Antifungal assay on amended PDA plates; assay type: cell-based; conditions: 200-1000 μg/mL in PDA plate; day 14 (figure)
Procedure: The fungus Venturia inaqualis that causes apple scab was maintained on PDA agar in the dark at room temperature (˜24° C.). A mixture of conidia and mycelia suspension (in 0.01 M PBS) was harvested from PDA (Potato dextrose agar). Ten μL the conidia and mycelia suspension were dropped onto biocontrol bacteria, RejuAgro A, or RejuAgro A amended plates. The control was PDA plates without the addition of the biocontrol bacteria or RejuAgro A or B. […]

Structure (SMILES): C[C@H]1O[C@H](O[C@H]2[C@H](O)[C@@H](O)[C@@H](O)[C@H](O)[C@@H]2O)[C@@H](N)C[C@@H]1NC(=N)C(=O)O [Kasugamycin, reference compound]
- Diameter of the Inhibitory zone ([1]; concentration not given): 1.3 cm
- inhibitory zone / zone of clearance [2]: did show a zone of inhibition

Structure (SMILES): CC1=C(C2=C(C)C(=O)C(=O)NC2=O)C(=O)NC(=O)C1=O [RejuAgro B]
- solubility in dimethyl sulfoxide (DMSO) ([3]; DMSO): can be dissolved very well
- solubility in methanol and chloroform ([3]; methanol, chloroform): does not dissolve well
- zone of inhibition at 2000 µg/mL ([1]; Erwinia amylovora, 2 mg/mL, read-out: Diameter of the Inhibitory zone): 0 mm
- zone of inhibition at 2000 µg/mL [4]: 4 mm
- zone of inhibition at 2000 µg/mL [5]: 0 mm
- zone of inhibition at 2000 µg/mL [6]: 0 mm
- zone of inhibition at 2000 µg/mL [7]: 4 mm

Structure (SMILES): CC(C)CC(=O)NC(Cc1c[nH]c2ccccc12)C(=O)O (centres unmarked) [Rt22.9]
- Inhibitory zone (Yes/No) ([8]; 10 mg/mL): No
- Inhibitory zone (Yes/No) ([9]; 10 mg/mL): Yes
- Inhibitory zone (Yes/No) ([10]; 10 mg/mL): No
- Inhibitory zone (Yes/No) ([11]; 10 mg/mL): Yes
- Inhibitory zone (Yes/No) ([12]; 10 mg/mL): Yes
- Inhibitory zone (Yes/No) ([13]; 10 mg/mL): Yes
- Inhibitory zone (Yes/No) ([14]; 10 mg/mL): No
- Inhibitory zone (Yes/No) ([15]; 10 mg/mL): Yes
- Inhibitory zone (Yes/No) ([16]; 10 mg/mL): No
- Inhibitory zone (Yes/No) ([17]; 10 mg/mL): No
- Inhibitory zone (Yes/No) ([18]; 10 mg/mL): No
- Inhibitory zone (Yes/No) ([19]; 10 mg/mL): No
- Inhibitory zone (Yes/No) ([20]; 10 mg/mL): No
- Inhibitory zone (Yes/No) ([21]; 2 μL of 10 mg/mL spotted): Yes

Structure (SMILES): CCCCCC(=O)NC(Cc1c[nH]c2ccccc12)C(=O)O (centres unmarked) [Rt25.0]
- Inhibitory zone (Yes/No) ([8]; 5 mg/mL): Yes
- Inhibitory zone (Yes/No) ([9]; 5 mg/mL): Yes
- Inhibitory zone (Yes/No) ([10]; 5 mg/mL): No
- Inhibitory zone (Yes/No) ([11]; 5 mg/mL): Yes
- Inhibitory zone (Yes/No) ([12]; 5 mg/mL): Yes
- Inhibitory zone (Yes/No) ([13]; 5 mg/mL): Yes
- Inhibitory zone (Yes/No) ([14]; 5 mg/mL): No
- Inhibitory zone (Yes/No) ([15]; 5 mg/mL): Yes
- Inhibitory zone (Yes/No) ([16]; 5 mg/mL): No
- Inhibitory zone (Yes/No) ([17]; 5 mg/mL): Yes
- Inhibitory zone (Yes/No) ([18]; 5 mg/mL): Yes
- Inhibitory zone (Yes/No) ([19]; 5 mg/mL): No
- Inhibitory zone (Yes/No) ([20]; 5 mg/mL): Yes
- Inhibitory zone (Yes/No) ([21]; 2 μL of 5 mg/mL spotted): Yes

Structure (SMILES): CN[C@H](CC(C)C)C(=O)N[C@H]1C(=O)N[C@@H](CC(N)=O)C(=O)N[C@H]2C(=O)N[C@H]3C(=O)N[C@H](C(=O)N[C@H](C(=O)O)c4cc(O)cc(O)c4-c4cc3ccc4O)[C@H](O)c3ccc(c(Cl)c3)Oc3cc2cc(c3O[C@@H]2O[C@H](CO)[C@@H](O)[C@H](O)[C@H]2O[C@H]2C[C@](C)(N)[C@H](O)[C@H](C)O2)Oc2ccc(cc2Cl)[C@H]1O [Vancomycin]
- zone of inhibition at 5000 µg/mL [22]: 30 mm
- zone of inhibition at 5000 µg/mL [23]: 30 mm
- zone of inhibition at 5000 µg/mL [24]: 30 mm

Structure (SMILES): O=S(=O)([O-])[O-].[Cu+2] [copper sulfate, reference compound]
- growth of V. inaequalis on PDA plates [25]: no inhibition; also recorded: can grow
